Legend:
Format in all cases: functional, cell-based
[1] = biological target: T1, ATP-dependent translocase ABCB1 (Homo sapiens, UniProt P08183); experiment: TP_TRANSPORTER: increase in Calcein-AM intracellular accumulation (Calcein-AM: 0.5 uM, Oligomycin: 5 uM) in MDR1-expressing NIH-3T3 cells; conditions: mouse, nih3t3, 5 µM
[2] = biological target: T1, ATP-dependent translocase ABCB1; experiment: TP_TRANSPORTER: increase in Calcein-AM intracellular accumulation (Calcein-AM: 0.5 uM, Taxol: 20 uM) in MDR1-expressing NIH-3T3 cells; conditions: mouse, nih3t3, 20 µM
[3] = biological target: T1, ATP-dependent translocase ABCB1; experiment: TP_TRANSPORTER: increase in Calcein-AM intracellular accumulation (Calcein-AM: 0.5 uM, Prazosin: 10 uM) in MDR1-expressing NIH-3T3 cells; conditions: mouse, nih3t3, 10 µM
[4] = biological target: T1, ATP-dependent translocase ABCB1; experiment: TP_TRANSPORTER: increase in Calcein-AM intracellular accumulation (Calcein-AM: 0.5 uM, Puromycin: 20 uM) in MDR1-expressing NIH-3T3 cells; conditions: mouse, nih3t3, 20 µM
[5] = biological target: T1, ATP-dependent translocase ABCB1; experiment: TP_TRANSPORTER: increase in Calcein-AM intracellular accumulation (Calcein-AM: 0.5 uM, Vincristine: 200 uM) in MDR1-expressing NIH-3T3 cells; conditions: mouse, nih3t3, 200 µM

T1 sequence (P08183 whole entry): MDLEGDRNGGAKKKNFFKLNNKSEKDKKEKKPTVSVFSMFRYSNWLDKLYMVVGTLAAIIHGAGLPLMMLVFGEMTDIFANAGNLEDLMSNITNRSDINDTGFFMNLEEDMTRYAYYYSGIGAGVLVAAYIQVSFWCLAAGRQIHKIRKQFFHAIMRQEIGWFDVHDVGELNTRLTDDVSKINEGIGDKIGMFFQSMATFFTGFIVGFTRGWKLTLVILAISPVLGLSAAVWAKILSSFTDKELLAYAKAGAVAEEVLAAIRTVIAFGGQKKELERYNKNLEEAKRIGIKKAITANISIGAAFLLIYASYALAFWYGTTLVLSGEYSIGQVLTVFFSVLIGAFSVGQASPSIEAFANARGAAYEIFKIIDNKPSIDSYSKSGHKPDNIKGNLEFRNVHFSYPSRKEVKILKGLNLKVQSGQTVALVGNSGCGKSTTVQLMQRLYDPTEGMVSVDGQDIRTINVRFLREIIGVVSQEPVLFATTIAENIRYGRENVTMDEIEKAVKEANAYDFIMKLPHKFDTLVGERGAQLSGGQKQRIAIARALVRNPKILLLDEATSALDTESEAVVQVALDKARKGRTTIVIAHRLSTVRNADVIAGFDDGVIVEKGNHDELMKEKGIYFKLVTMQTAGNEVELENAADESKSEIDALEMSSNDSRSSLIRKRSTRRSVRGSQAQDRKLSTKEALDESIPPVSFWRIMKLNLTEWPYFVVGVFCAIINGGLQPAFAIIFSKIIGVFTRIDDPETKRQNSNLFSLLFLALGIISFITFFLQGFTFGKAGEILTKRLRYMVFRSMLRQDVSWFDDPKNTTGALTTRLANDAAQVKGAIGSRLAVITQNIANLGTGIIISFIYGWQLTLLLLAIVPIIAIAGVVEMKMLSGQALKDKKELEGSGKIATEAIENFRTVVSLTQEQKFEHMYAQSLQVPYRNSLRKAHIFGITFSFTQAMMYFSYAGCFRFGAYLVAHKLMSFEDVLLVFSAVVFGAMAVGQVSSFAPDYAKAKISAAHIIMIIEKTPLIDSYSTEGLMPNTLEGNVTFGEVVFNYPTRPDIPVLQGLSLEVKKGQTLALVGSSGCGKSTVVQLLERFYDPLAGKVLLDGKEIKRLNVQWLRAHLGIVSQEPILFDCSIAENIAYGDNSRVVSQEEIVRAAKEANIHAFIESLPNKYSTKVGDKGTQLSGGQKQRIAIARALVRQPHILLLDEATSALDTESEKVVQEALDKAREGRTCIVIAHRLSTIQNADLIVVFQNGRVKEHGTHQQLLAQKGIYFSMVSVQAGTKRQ

CC[C@H]1/C=C/C=C/C[C@@H](C)[C@H](O)[C@@](C)(O)C(=O)[C@@H](C)[C@H](O)[C@@H](C)C(=O)[C@@H](C)[C@H](O)[C@@H](C)/C=C/C(=O)O[C@@H]2[C@H](C)[C@H](CC1)O[C@]1(CC[C@H](C)[C@H](C[C@@H](C)O)O1)[C@H]2C [OLIGOMYCIN]
Activity [1]: is not an inhibitor [-]

CC(=O)O[C@H]1C(=O)[C@@]2(C)[C@H]([C@H](OC(=O)c3ccccc3)[C@]3(O)C[C@H](OC(=O)[C@H](O)[C@@H](NC(=O)c4ccccc4)c4ccccc4)C(C)=C1C3(C)C)[C@]1(OC(C)=O)CO[C@@H]1C[C@@H]2O [PACLITAXEL]
Activity [2]: is not an inhibitor [-]

COc1cc2nc(N3CCN(C(=O)c4ccco4)CC3)nc(N)c2cc1OC [PRAZOSIN]
Activity [3]: is not an inhibitor [-]

COc1ccc(C[C@H](N)C(=O)N[C@H]2[C@@H](O)[C@H](n3cnc4c(N(C)C)ncnc43)O[C@@H]2CO)cc1 [PUROMYCIN]
Activity [4]: is not an inhibitor [-]

CC[C@]1(O)C[C@H]2CN(CCc3c([nH]c4ccccc34)[C@@](C(=O)OC)(c3cc4c(cc3OC)N(C=O)[C@H]3[C@@](O)(C(=O)OC)[C@H](OC(C)=O)[C@]5(CC)C=CCN6CC[C@]43[C@@H]65)C2)C1 [VINCRISTINE]
Activity [5]: is not an inhibitor [-]
